In patent EP0099122A2, “Compositions comprising pepstatin and an histamine H2-receptor antagonist having an enhanced antiulcer activity” (Bristol-Myers Company, priority 1982, dated 1984):
Marks after values point to notes of the source that are not given here.

Tested on: Gastric Fistula Rat
Experiment: Gastric antisecretory activity in the Gastric Fistula Rat
Type: in vivo, Long Evans rats
Conditions: sc, 95% confidence limits in parentheses
Protocol: Determination of Gastric Antisecretory Activity in the Gastric Fistula Rat
Male Long Evans rats weighing about 240-260 grams at the time of cannula implantation are used. […] The fistula components are designed and the operative procedure is carried out exactly as described in the above reference. Post operatively the animals are individually housed in solid bottom cages with sawdust and are allowed food and water ad libitum throughout the entire recovery period. Animals are not used for test purposes for at least 15 days after the operative procedure.
The animals are fasted but allowed water ad libitum for 20 hours before the testing procedure is to begin. Immediately prior to collection, the cannula is opened and the. stomach washed gently with 30-40 mL of warm saline or distilled water to remove any residual contents. The catheter is then screwed into the cannula in place of the plugging screw and the rat is placed in a clear plastic rectangular cage measuring 40 cm long, 15 cm wide and 13 cm high. The bottom of the cage has a slit approximately 1.5 cm wide and 25 cm long running down the center to accommodate the catheter which hangs through it. In this way the rat is not restricted and can move -freely about the cage during collection periods. The remainder of the assay is carried out as described by Ridley et al. [Research Comm. Chem. Path.
Gastric secretions collected during the first hour after washing the stomach are discarded as they may be contaminated. For oral evaluation, the catheter is then removed from the cannula and replaced with the plugging screw. Water (2 mL/kg) is administered orally via gastric intubation and the animal is returned to the cage for 45 minutes. After this time the plugging screw is removed and replaced with a catheter to which a small plastic vial has been attached to collect the gastric secretions. A two hour sample is collected (this represents the control secretion), the catheter removed and.replaced with the plugging screw. The test drug is now administered orally in a volume of 2 mL/kg via gastric intubation. Forty-five minutes later the plugging screw is again removed, replaced with the catheter attached to a small plastic vial and another 2 hour sample is collected. The secretions in the second sample are compared to those of the control sample in order to determine thee effects of the test drug.
When test compounds are to be evaluated parenterally, the animal is injected ip or sc with the test compound vehicle in a volume of 2 mL/kg immediately after discarding the initial 60 minute collection. A two hour sample is collected (control secretion) and the animals are injected either ip or sc with the test compound in a volume of 2 mL/kg. An additional two hour sample is collected and its secretions are compared to those of the control period to determing drug effects.
The samples are centrifuged in a graduated tube for volume determination. Titratable acidity is measured by titrating a one mL sample to pH 7.0 with 0.02N NaOH, using an Autoburet and an electrometric pH meter (Radiometer). Titratable acid output is calculated in microequivalents by multiplying the volume in milliliters by the acid concentration in milliequivalents per liter.
Results are expressed as percent inhibition relative to control readings. Dose response curves are constructed and ED50 values are calculated by regression analyses. At least three rats are used at each dosage level and a minimum of three dosage levels are utilized for determination of a dose response curve.

In the case of `Nc1c(NCCCOc2cccc(CN3CCCCC3)c2)c(=O)c1=O` [Example 1], the ED50 (Rattus norvegicus, read-out: ED50 sc) is reported as 0.023 µmol/kg and the “Potency Ratio [cimetidine = 1.0]” value is reported as 162 (77-328)*.
